Values quoted from earlier work in patent US20240027453A1, “METHOD FOR DETECTION AND QUANTITATIVE MONITORING OF INFECTIONS WITH HERPESVIRUSES” (The Trustees of Princeton University, priority 2020, published 2024).

Columns and labels:
[1] = test system: HCMV; conditions: cited from earlier work
[2] = test system: HCMV; conditions: in MRC5 cells; cited from earlier work

In the case of Nc1c(S(=O)(=O)c2ccccc2)c2nc3ccccc3nc2n1-c1ccc(F)cc1 [CAY10602], the “decrease in HCMV titers” value ([1]; […] CAY10602, 50 μM trans-Resveratrol) is given as about 50% and the HCMV titers [1] is given as “decreased”.
For Nc1ccn(C[C@@H](CO)OCP(=O)(O)O)c(=O)n1 [CDV, cidofovir], the IC50 [2] is given as about 500 nM.
